Experiments:
α-amylase = molecular target: T1, α-amylase (Sus scrofa, UniProt P00690); experiment: In vitro α-amylase inhibitory assay; assay type: biochemical
T1 sequence (P00690 16-511): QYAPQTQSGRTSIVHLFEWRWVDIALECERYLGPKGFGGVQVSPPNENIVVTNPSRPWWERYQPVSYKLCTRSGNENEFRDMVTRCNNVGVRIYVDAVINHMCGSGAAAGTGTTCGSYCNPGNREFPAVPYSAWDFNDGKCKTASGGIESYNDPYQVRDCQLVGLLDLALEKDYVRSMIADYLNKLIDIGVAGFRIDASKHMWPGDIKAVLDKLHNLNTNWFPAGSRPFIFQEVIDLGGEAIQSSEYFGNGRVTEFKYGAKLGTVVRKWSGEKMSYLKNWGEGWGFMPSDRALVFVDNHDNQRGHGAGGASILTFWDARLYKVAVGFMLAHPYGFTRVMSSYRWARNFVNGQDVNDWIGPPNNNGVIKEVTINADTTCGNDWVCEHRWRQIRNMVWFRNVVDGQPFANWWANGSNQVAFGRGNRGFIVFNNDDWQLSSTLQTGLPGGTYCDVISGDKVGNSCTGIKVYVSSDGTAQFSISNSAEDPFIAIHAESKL
Description: (§1) Biological profile of all the candidates were obtained through experimental-based analysis, as described in the inhibitory assay (5.3 and 5.4). […]
absorbance was recorded using an ELISA microplate reader at 540 nm. […]
the standard. All the reactions were carried out in triplicates. The reaction mixture, devoid of the test sample, served as control. […]
(§2) PDB format. The process was further carried out in auto dock in which polar hydrogen and Kollman and Gasteiger charges were add ed to protein. Selected ligand was also prepared done by using torsion tree to detect root. Moreover, configuration file was generated along with X, Y and Z axis save both ligand and protein in PDBQT format in the same docking folder. At the end

α-glucosidase = α-glucosidase (Saccharomyces cerevisiae, UniProt P53341); assay type: biochemical
Description: as §1
5.4 α-glucosidase inhibitory assay protocol
10 µl of the α-glucosidase enzyme, 20 µl of test samples (10-50 µg/ml) and 50 µl, of 0.1M […]
nitrophenyl—D-g lucopy ranoside solution was fu rther added as a substrate and again incubated for 20 min at 37 °C. Sodium carbonate (50 µl of 0.1M) was added to terminate the reaction. P- […]
conditions by omitting test samples. All the experiments were carried out in triplicates. The percentage inhibition was calculated by the formula.
% Inhibition = [(Ac – As) /Ac] × 100 Ac-absorbance for control, As-absorbance for standard. […]
as §2

α-glucosidase, sequence (P53341 whole entry): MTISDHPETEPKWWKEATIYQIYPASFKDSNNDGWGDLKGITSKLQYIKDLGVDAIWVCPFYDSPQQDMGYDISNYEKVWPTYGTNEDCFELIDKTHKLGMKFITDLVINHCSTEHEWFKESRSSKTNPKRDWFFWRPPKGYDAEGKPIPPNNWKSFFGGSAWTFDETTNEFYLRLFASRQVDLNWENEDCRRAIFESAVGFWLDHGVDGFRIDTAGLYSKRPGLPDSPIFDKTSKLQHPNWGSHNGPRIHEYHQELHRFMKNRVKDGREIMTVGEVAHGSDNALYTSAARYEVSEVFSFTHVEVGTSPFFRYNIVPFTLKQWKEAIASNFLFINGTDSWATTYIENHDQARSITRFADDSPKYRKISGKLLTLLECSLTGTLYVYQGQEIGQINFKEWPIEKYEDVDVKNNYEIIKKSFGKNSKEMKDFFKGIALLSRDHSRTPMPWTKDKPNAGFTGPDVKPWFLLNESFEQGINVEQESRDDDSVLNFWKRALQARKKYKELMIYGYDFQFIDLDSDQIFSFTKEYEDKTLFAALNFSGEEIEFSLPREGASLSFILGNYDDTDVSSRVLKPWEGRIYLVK

melting point [°C] | Compound | IC50 (α-amylase) [µM] | IC50 (α-glucosidase) [µM]
– | (2Z,5Z)-5-((7-hydroxy-4-(trifluoromethyl)benzo[d]thiazol-6-yl)methylene)-2-(thiazol-2-ylimino)thiazolidin-4-one [Compound 6] | 2.1 ± 0.7 | 3.2 ± 0.7
243 to 244 | N#Cc1cccc(-c2c(/C=C3\S/C(=N\c4nccs4)NC3=O)ccc3ncsc23)c1 [Compound 15, 3-(6-((Z)-((Z)-4-oxo-2-(thiazol-2-ylimino)thiazolidin-5-ylidene)methyl)benzo[d]thiazol-7-yl)benzonitrile] | – | –
241 to 242 | O=C1N/C(=N/c2nccs2)S/C1=C\c1ccc2ncsc2c1-c1cccc([N+](=O)[O-])c1Cl [Compound 9, (2Z,5Z)-5-((7-(2-chloro-3-nitrophenyl)benzo[d]thiazol-6-yl)methylene)-2-(thiazol-2-ylimino)thiazolidin-4-one] | – | –
– | (2Z,5Z)-5-((5-nitrobenzo [d]thiazol-6-yl) methylene)-2-(thiazol-2-ylimino)thiazolidin-4-one [Compound 1] | 7.7 ± 0.2 | 8.8 ± 0.2
227 to 228 | CN(C)c1cc(/C=C2\S/C(=N\c3nccs3)NC2=O)cc2scnc12 [Compound 10, (2Z,5Z)-5-((4-(dimethylamino)benzo[d]thiazol-6-yl)methylene)-2-(thiazol-2-ylimino)thiazolidin-4-one] | – | –

Reference: paper PMC9610606, “Design, Synthesis, In Silico Testing, and In Vitro Evaluation of Thiazolidinone-Based Benzothiazole Derivatives as Inhibitors of α-Amylase and α-Glucosidase” (Pharmaceuticals, 2022)
